Experimental data: PubChem BioAssay AID1963961 (Molecular Pharmacology Branch, DTP, NCI, 2024)

Tested on: K98450-129-R-PDC multicell spheroids, viability
Test: Anticancer human tumor K98450-129-R-PDC patient-derived colon adenocarcinoma cell line growth inhibition [PI3K]
Conditions: for IC50: curve of first compound; for viability, T/C: stronger effect = lower value; active = viability on the fitted dose curve at most 10% of control; inactive = the rest
Source text: Combinatorial screen of targeted agents with the PI3K inhibitors inavolisib, alpelisib, duvelisib, and copanlisib in multi-cell type tumor spheroids
A high-throughput screen of multi-cell type tumor spheroids was designed to identify active combinations of targeted small molecules and PI3K pathway inhibitors. Complex spheroids include a stromal component modeled by human endothelial cells (HUVEC) and fibroblasts modeled by human mesenchymal stem cells (MSCs). The concentration ranges selected for each drug and investigational agent were based upon clinically achievable concentrations if the clinical Cmax of the agent was known.
Compounds. The drugs and investigational agents: inavolisib (NSC800729), alpelisib (NSC765974), duvelisib (NSC772469), copanlisib (NSC816437), ipatasertib (NSC767898), afuresertib (NSC778305), talazoparib (NSC767125), sapanisertib (NSC764658), selumetinib (NSC741078), tovorafenib (DAY101, NSC766906), vemurafenib (NSC761431), ravoxertinib (NSC781343), sotorasib (NSC818433), MRTX1133 (NSC 836407), abemaciclib (NSC 768073), palbociclib (NSC758247), venetoclax (NSC 766270), SY5609 (NSC837396), enzalutamide (NSC755605), and darolutamide (NSC825331), were obtained from the National Cancer Institute (NCI) Developmental Therapeutics Program Chemical Repository. The FDA-approved anticancer drug set is available from the NCI Developmental Therapeutics Program. […] The stock solutions were prepared in dimethyl sulfoxide (DMSO, Sigma-Aldrich, St. Louis, MO, cat. D2650) at 800-fold the tested concentration and stored at -70 degrees C prior to their use. All drugs and investigational agents were tested over a range starting from a high concentration at or near the clinical Cmax and decreasing in half-log increments. If the clinical Cmax for an agent had not been determined, the highest concentration tested was 10 microM.
Cell Culture. All cells were maintained in an incubator at 37 degrees C and 5% CO2 with 95% humidity. The PDC lines were cultured according to standard operating procedures established by the NCI PDMR (https://pdmr.cancer.gov/sops/default.htm). All PDCs were thawed and cultured in Matrigel-coated flasks prepared with a working solution of 1X Ham's F-12 nutrient mix, without supplementation (Invitrogen, Waltham, MA, cat. 11765054), 100 U/mL penicillin-streptomycin (Invitrogen, cat. 15140122), and 2.5% Matrigel (Corning Inc., Corning, NY, cat. 354248) for the first three passages. The 354836-022-R-J1-PDC, 475296-252-R-J1-PDC, and 997726-040-R-J2-PDC lines were cultured in 6A media, which includes advanced DMEM/F-12 (Thermo Fisher Scientific, cat. 12634028), 10 mM HEPES (Thermo Fisher Scientific, cat. 15630080), 1X GlutaMAX supplement (Thermo Fisher Scientific, cat. 35050061), 0.1 mg/mL primocin (InvivoGen, San Diego, CA, cat. ant-pm-2), 10% defined fetal bovine serum, heat inactivated (HyClone Laboratories Inc., Logan, UT, cat. SH30070.03HI), 50% L-WRN conditioned media (ATCC, cat. CRL-3276), 1.25 mM N-Acetyl-L-cysteine (Sigma-Aldrich, cat. A9165), 10 mM nicotinamide (Sigma-Aldrich, cat. N0636), 1X B-27 supplement (Thermo Fisher Scientific, cat. 17504044), 1X N-2 supplement (Thermo Fisher Scientific, cat. 17502048), and 10 microM Y-27632 dihydrochloride (Tocris Bioscience, Bristol, United Kingdom, cat. 1254). The 624824-186-R-J2-PDC line was cultured in 6C/Colon 1B media, which includes all 6A media components plus 50 ng/mL human EGF recombinant protein (Thermo Fisher Scientific, cat. PHG0311). […]

[1] = second compound 0.0316 µM, first compound 0.0316 µM
[2] = second compound 0.0316 µM, first compound 0.1 µM
[3] = second compound 0.1 µM, first compound 0.0316 µM
[4] = second compound 0.1 µM, first compound 0.1 µM
[5] = second compound 0.316 µM, first compound 0.0316 µM
[6] = second compound 0.316 µM, first compound 0.1 µM
[7] = second compound 1 µM, first compound 0.0316 µM
[8] = second compound 1 µM, first compound 0.1 µM
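Note: spheroids exposed to agents for seven days before read-out.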

CCCS(=O)(=O)Nc1ccc(F)c(C(=O)c2c[nH]c3ncc(-c4ccc(Cl)cc4)cc23)c1F + COc1c(OCCCN2CCOCC2)ccc2c3n(c(=NC(=O)c4cnc(N)nc4)nc12)CCN3
5540 nM: IC50 (second compound 0.0316 µM)
5770 nM: IC50 (second compound 0.01 µM)
active: viability, T/C (second compound 0.00316 µM, first compound 10 µM) 5.65% | viability, T/C (second compound 0.0316 µM, first compound 10 µM) 8.56% | viability, T/C (second compound 0.1 µM, first compound 10 µM) 7.64% | viability, T/C (second compound 0.316 µM, first compound 10 µM) 7.49% | viability, T/C (second compound 1 µM, first compound 10 µM) 7.62%
1650 nM: IC50 (second compound 1 µM)
5990 nM: IC50 (second compound 0.00316 µM)
2710 nM: IC50 (second compound 0.316 µM)
4000 nM: IC50 (second compound 0.1 µM)
inactive: viability, T/C (second compound 0.00316 µM, first compound 0.0316 µM) 107% | viability, T/C (second compound 0.00316 µM, first compound 0.1 µM) 105% | viability, T/C (second compound 0.00316 µM, first compound 0.316 µM) 95.1% | viability, T/C (second compound 0.00316 µM, first compound 1 µM) 120% | viability, T/C (second compound 0.00316 µM, first compound 3.16 µM) 105% | viability, T/C (second compound 0.01 µM, first compound 0.0316 µM) 116% | viability, T/C (second compound 0.01 µM, first compound 0.1 µM) 93% | viability, T/C (second compound 0.01 µM, first compound 0.316 µM) 93.4% | viability, T/C (second compound 0.01 µM, first compound 1 µM) 60.2% | viability, T/C (second compound 0.01 µM, first compound 3.16 µM) 93.9% | viability, T/C (second compound 0.01 µM, first compound 10 µM) 12.2% | viability, T/C [1] 99% | viability, T/C [2] 95.5% | viability, T/C (second compound 0.0316 µM, first compound 0.316 µM) 82.3% | viability, T/C (second compound 0.0316 µM, first compound 1 µM) 78.3% | viability, T/C (second compound 0.0316 µM, first compound 3.16 µM) 91.6% | viability, T/C [3] 84% | viability, T/C [4] 98.2% | viability, T/C (second compound 0.1 µM, first compound 0.316 µM) 76.2% | viability, T/C (second compound 0.1 µM, first compound 1 µM) 80.2% | viability, T/C (second compound 0.1 µM, first compound 3.16 µM) 61.7% | viability, T/C [5] 66.5% | viability, T/C [6] 79.5% | viability, T/C (second compound 0.316 µM, first compound 0.316 µM) 72% | viability, T/C (second compound 0.316 µM, first compound 1 µM) 80.2% | viability, T/C (second compound 0.316 µM, first compound 3.16 µM) 46.2% | viability, T/C [7] 57.6% | viability, T/C [8] 53.8% | viability, T/C (second compound 1 µM, first compound 0.316 µM) 54.3% | viability, T/C (second compound 1 µM, first compound 1 µM) 59.9% | viability, T/C (second compound 1 µM, first compound 3.16 µM) 41.9%

CC(C)n1nc(-c2ccc3oc(N)nc3c2)c2c(N)ncnc21 + CC(Nc1ncnc2nc[nH]c12)c1cc2cccc(Cl)c2c(=O)n1-c1ccccc1
> 100 nM: IC50 (second compound 0.0316 µM) | IC50 (second compound 0.1 µM) | IC50 (second compound 0.316 µM) | IC50 (second compound 1 µM) | IC50 (second compound 3.16 µM) | IC50 (second compound 10 µM)
inactive: viability, T/C (second compound 0.0316 µM, first compound 0.000316 µM) 106% | viability, T/C (second compound 0.0316 µM, first compound 0.001 µM) 91.5% | viability, T/C (second compound 0.0316 µM, first compound 0.00316 µM) 93.9% | viability, T/C (second compound 0.0316 µM, first compound 0.01 µM) 79% | viability, T/C [1] 84.6% | viability, T/C [2] 84.6% | viability, T/C (second compound 0.1 µM, first compound 0.000316 µM) 126% | viability, T/C (second compound 0.1 µM, first compound 0.001 µM) 96.9% | viability, T/C (second compound 0.1 µM, first compound 0.00316 µM) 106% | viability, T/C (second compound 0.1 µM, first compound 0.01 µM) 111% | viability, T/C [3] 81.1% | viability, T/C [4] 72.8% | viability, T/C (second compound 0.316 µM, first compound 0.000316 µM) 108% | viability, T/C (second compound 0.316 µM, first compound 0.001 µM) 134% | viability, T/C (second compound 0.316 µM, first compound 0.00316 µM) 81.3% | viability, T/C (second compound 0.316 µM, first compound 0.01 µM) 95.4% | viability, T/C [5] 92.7% | viability, T/C [6] 71.1% | viability, T/C (second compound 1 µM, first compound 0.000316 µM) 101% | viability, T/C (second compound 1 µM, first compound 0.001 µM) 111% | viability, T/C (second compound 1 µM, first compound 0.00316 µM) 84.3% | viability, T/C (second compound 1 µM, first compound 0.01 µM) 97.6% | viability, T/C [7] 92.1% | viability, T/C [8] 71.3% | viability, T/C (second compound 3.16 µM, first compound 0.000316 µM) 110% | viability, T/C (second compound 3.16 µM, first compound 0.001 µM) 97.4% | viability, T/C (second compound 3.16 µM, first compound 0.00316 µM) 103% | viability, T/C (second compound 3.16 µM, first compound 0.01 µM) 91.7% | viability, T/C (second compound 3.16 µM, first compound 0.0316 µM) 90.4% | viability, T/C (second compound 3.16 µM, first compound 0.1 µM) 67.3% | viability, T/C (second compound 10 µM, first compound 0.000316 µM) 92.6% | viability, T/C (second compound 10 µM, first compound 0.001 µM) 84.2% | viability, T/C (second compound 10 µM, first compound 0.00316 µM) 87.1% | viability, T/C (second compound 10 µM, first compound 0.01 µM) 88.5% | viability, T/C (second compound 10 µM, first compound 0.0316 µM) 87.6% | viability, T/C (second compound 10 µM, first compound 0.1 µM) 78.2%
